Results published in patent US20230085307A1, “PYRIDAZINONE COMPOUND AND HERBICIDE” (NISSAN CHEMICAL CORPORATION, priority 2019, published 2023).

What was measured:
oval-leafed pondweed [1] = assay: Test Example 1: herbicidal activity, application before weed generation under submerged conditions (Table 16, symbol C); format: in vivo, oval-leafed pondweed (Monochoria vaginalis); settings: 320 g/ha applied herbicide
Procedure, shortened: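 Alluvial soil was flooded to 4 cm depth, weed seeds were sown mixed and 2.5-leaf rice seedlings were transplanted. On sowing day, the compound's emulsion, diluted in water to a set dose, was applied to the water surface. Plants grew at 25–30 °C and were scored 0–5 after three weeks.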

late watergrass = assay: Test Example 2: herbicidal activity, application during weed generation under submerged conditions (Table 17, symbol A); format: in vivo, late watergrass (Echinochloa oryzicola); settings: AAH 320 g/ha; application during weed generation, submerged conditions
Procedure, shortened: (§1)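 In this pot test, flooded alluvial soil (water depth 4 cm) holds all three species sown as a mixture. Once seedlings have one to two leaves, the compound's emulsion, thinned with water to the intended dose, is poured on the water; grading follows after three weeks on the earlier criteria.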

oval-leafed pondweed [2] = assay: Test Example 2: herbicidal activity, application during weed generation under submerged conditions (Table 17, symbol C); format: in vivo, oval-leafed pondweed (Monochoria vaginalis); settings: AAH 320 g/ha; application during weed generation, submerged conditions
Procedure, shortened: as §1

rice flat sedge = assay: Test Example 3: herbicidal effect by foliage application, Wagner pot (Table 18, symbol E); format: in vivo, rice flat sedge (Cyperus iria); settings: amount of applied herbicide 320 g/ha
Procedure, shortened: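 Plants were sown in alluvial soil held under 0.1–0.5 cm standing water and grown 14 days in a greenhouse at 25–30 °C. An emulsifiable formulation, water-diluted to the set dose, was then sprayed onto the foliage, and effects were scored three weeks later using previously defined criteria.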

green foxtail [3] = assay: Test Example 4: herbicidal effect by soil treatment (Table 19, symbol G); format: in vivo, green foxtail (Setaria viridis); settings: amount of applied herbicide 320 g/ha
Procedure, shortened: (§2)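 Herbicidal effect was rated 3 weeks after treatment, using the scoring criteria of an earlier test. The compound, formulated as an emulsion and diluted in water to a set herbicide amount, had been sprayed uniformly on soil over freshly sown seeds. Growth took place in a greenhouse at 25° C. to 30° C.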

wild oat [4] = assay: Test Example 4: herbicidal effect by soil treatment (Table 19, symbol I); format: in vivo, wild oat (Avena fatua); settings: amount of applied herbicide 320 g/ha
Procedure, shortened: as §2

blackgrass = assay: Test Example 4: herbicidal effect by soil treatment (Table 19, symbol J); format: in vivo, blackgrass (Alopecurus myosuroides); settings: amount of applied herbicide 320 g/ha
Procedure, shortened: as §2

Italian ryegrass [5] = assay: Test Example 4: herbicidal effect by soil treatment (Table 19, symbol K); format: in vivo, Italian ryegrass (Lolium multiflorum); settings: amount of applied herbicide 320 g/ha
Procedure, shortened: as §2

velvetleaf [6] = assay: Test Example 4: herbicidal effect by soil treatment (Table 19, symbol M); format: in vivo, velvetleaf (Abutilon theophrasti); settings: amount of applied herbicide 320 g/ha
Procedure, shortened: as §2

redroot pigweed = assay: Test Example 4: herbicidal effect by soil treatment (Table 19, symbol N); format: in vivo, redroot pigweed (Amaranthus retroflexus); settings: amount of applied herbicide 320 g/ha
Procedure, shortened: as §2

chickweed = assay: Test Example 4: herbicidal effect by soil treatment (Table 19, symbol P); format: in vivo, common chickweed (Stellaria media); settings: amount of applied herbicide 320 g/ha
Procedure, shortened: as §2

southern crabgrass = assay: Test Example 5: herbicidal effect by foliage application, plastic box (Table 20, symbol F); format: in vivo, southern crabgrass (Digitaria ciliaris); settings: foliage application, 320 g/ha, evaluated three weeks after application
Procedure, shortened: (§3)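 Foliar spray test: emulsion formulation diluted in water to a set application rate, sprayed onto 14-day-old plants raised in diluvial soil at 25° C to 30° C under glass. Both herbicidal effect and crop effect rated visually three weeks later.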

green foxtail [7] = assay: Test Example 5: herbicidal effect by foliage application, plastic box (Table 20, symbol G); format: in vivo, green foxtail (Setaria viridis); settings: foliage application, 320 g/ha, evaluated three weeks after application
Procedure, shortened: as §3

wild oat [8] = assay: Test Example 5: herbicidal effect by foliage application, plastic box (Table 20, symbol I); format: in vivo, wild oat (Avena fatua); settings: foliage application, 320 g/ha, evaluated three weeks after application
Procedure, shortened: as §3

Italian ryegrass [9] = assay: Test Example 5: herbicidal effect by foliage application, plastic box (Table 20, symbol K); format: in vivo, Italian ryegrass (Lolium multiflorum); settings: foliage application, 320 g/ha, evaluated three weeks after application
Procedure, shortened: as §3

velvetleaf [10] = assay: Test Example 5: herbicidal effect by foliage application, plastic box (Table 20, symbol M); format: in vivo, velvetleaf (Abutilon theophrasti); settings: foliage application, 320 g/ha, evaluated three weeks after application
Procedure, shortened: as §3

persian speedwell = assay: Test Example 5: herbicidal effect by foliage application, plastic box (Table 20, symbol R); format: in vivo, Persian speedwell (Veronica persica); settings: foliage application, 320 g/ha, evaluated three weeks after application
Procedure, shortened: as §3

SMILES: Cc1nn(C)c(=O)c(-c2c(-c3ccccc3)sc3ccc(F)cc23)c1O [2-197]
- Herbicidal effect on C: oval-leafed pondweed (grade 0-5) (oval-leafed pondweed [1]): 3 (Herbicidal rate of 40% or more and less than 70%)
- herbicidal effect rating, A: late watergrass (late watergrass): 3 (Herbicidal rate of 40% or more and less than 70%)
- herbicidal effect rating, C: oval-leafed pondweed (oval-leafed pondweed [2]): 4 (Herbicidal rate of 70% or more and less than 90%)
- herbicidal effect on E: rice flat sedge (rice flat sedge): 5 (Herbicidal rate of 90% or more (almost completely withered))
- G: green foxtail, herbicidal effect rating (green foxtail [3]): 4 (Herbicidal rate of 70% or more and less than 90%)
- I: wild oat, herbicidal effect rating (wild oat [4]): 1 (Herbicidal rate of 5% or more and less than 20%)
- J: blackgrass, herbicidal effect rating (blackgrass): 3 (Herbicidal rate of 40% or more and less than 70%)
- K: Italian ryegrass, herbicidal effect rating (Italian ryegrass [5]): 4 (Herbicidal rate of 70% or more and less than 90%)
- M: velvetleaf, herbicidal effect rating (velvetleaf [6]): 4 (Herbicidal rate of 70% or more and less than 90%)
- N: redroot pigweed, herbicidal effect rating (redroot pigweed): 5 (Herbicidal rate of 90% or more (almost completely withered))
- P: chickweed, herbicidal effect rating (chickweed): 3 (Herbicidal rate of 40% or more and less than 70%)
- herbicidal effect on F: southern crabgrass (criteria 0-5) (southern crabgrass): 5 (Herbicidal rate of 90% or more (almost completely withered))
- herbicidal effect on G: green foxtail (criteria 0-5) (green foxtail [7]): 5 (Herbicidal rate of 90% or more (almost completely withered))
- herbicidal effect on I: wild oat (criteria 0-5) (wild oat [8]): 4 (Herbicidal rate of 70% or more and less than 90%)
- herbicidal effect on K: Italian ryegrass (criteria 0-5) (Italian ryegrass [9]): 4 (Herbicidal rate of 70% or more and less than 90%)
- herbicidal effect on M: velvetleaf (criteria 0-5) (velvetleaf [10]): 5 (Herbicidal rate of 90% or more (almost completely withered))
- herbicidal effect on R: persian speedwell (criteria 0-5) (persian speedwell): 5 (Herbicidal rate of 90% or more (almost completely withered))

SMILES: CCCC(=O)Oc1c(C)nn(C)c(=O)c1-c1c(-c2ccccc2)sc2ccc(F)cc12 [2-198]
- Herbicidal effect on C: oval-leafed pondweed (grade 0-5) (oval-leafed pondweed [1]): 3 (Herbicidal rate of 40% or more and less than 70%)
- herbicidal effect rating, A: late watergrass (late watergrass): 2 (Herbicidal rate of 20% or more and less than 40%)
- herbicidal effect rating, C: oval-leafed pondweed (oval-leafed pondweed [2]): 4 (Herbicidal rate of 70% or more and less than 90%)
- herbicidal effect on E: rice flat sedge (rice flat sedge): 5 (Herbicidal rate of 90% or more (almost completely withered))
- G: green foxtail, herbicidal effect rating (green foxtail [3]): 5 (Herbicidal rate of 90% or more (almost completely withered))
- I: wild oat, herbicidal effect rating (wild oat [4]): 4 (Herbicidal rate of 70% or more and less than 90%)
- J: blackgrass, herbicidal effect rating (blackgrass): 4 (Herbicidal rate of 70% or more and less than 90%)
- K: Italian ryegrass, herbicidal effect rating (Italian ryegrass [5]): 4 (Herbicidal rate of 70% or more and less than 90%)
- M: velvetleaf, herbicidal effect rating (velvetleaf [6]): 3 (Herbicidal rate of 40% or more and less than 70%)
- N: redroot pigweed, herbicidal effect rating (redroot pigweed): 5 (Herbicidal rate of 90% or more (almost completely withered))
- P: chickweed, herbicidal effect rating (chickweed): 4 (Herbicidal rate of 70% or more and less than 90%)
- herbicidal effect on F: southern crabgrass (criteria 0-5) (southern crabgrass): 5 (Herbicidal rate of 90% or more (almost completely withered))
- herbicidal effect on G: green foxtail (criteria 0-5) (green foxtail [7]): 4 (Herbicidal rate of 70% or more and less than 90%)
- herbicidal effect on I: wild oat (criteria 0-5) (wild oat [8]): 4 (Herbicidal rate of 70% or more and less than 90%)
- herbicidal effect on K: Italian ryegrass (criteria 0-5) (Italian ryegrass [9]): 5 (Herbicidal rate of 90% or more (almost completely withered))
- herbicidal effect on M: velvetleaf (criteria 0-5) (velvetleaf [10]): 5 (Herbicidal rate of 90% or more (almost completely withered))
- herbicidal effect on R: persian speedwell (criteria 0-5) (persian speedwell): 5 (Herbicidal rate of 90% or more (almost completely withered))
